Laboratory results published in patent US20250263457A1, “Pharmaceutical Composition for Preventing and Treating Liver Disease Comprising Novel Peptide” (Pusan National University Industry-University Cooperation …, priority 2024, published 2025).

System: CD44
Test: CD44 and CD44ICD expression in liver tissue of mouse model (IHC, Western blot)
Type: in vivo, C57BL/6 male mice
Conditions: 3.3 μg/kg i.p. every other day for three weeks
From the text: To prepare alcohol-related liver disease mice, 8-week-old C57BL/6 male mice were fed with a Lieber DeCarli liquid diet (Dyets, 710260) containing 5% EtOH for 9 weeks, and then injected intraperitoneally with a vehicle (PBS) every other day along with feeding liquid diet for additional 3 weeks. As a control group for the EtOH diet, mice fed with a pair Lieber DeCarli liquid diet (Dyets, 710027) having the same total calories as the EtOH diet were used (FIG. 4A).
The alcohol-related liver disease mouse model established by the method of Example 5.1 was administered vehicle (PBS) or peptide YJ (3.3 μg/kg) intraperitoneally every other day for three weeks, and then blood was collected and liver tissue was extracted to confirm the liver disease treatment effect of peptide YJ.
The expression of CD44 and CD44ICD in liver tissues extracted from the experimental mice of Example 5.3, or nuclear proteins or whole proteins (whole lysate) of liver tissues, was confirmed through immunohistochemical staining and Western blot. The immunohistochemical staining was performed using anti-CD44 antibody and anti-CD44ICD antibody by the method of Example 5.2.3, and Western blot was performed by the method of Examples 2 and 4.

[1] = EtOH diet group, vs vehicle, Western blot (FIG. 8B)

With “peptide YJ: TSG-6 fragment: core domain RSGKYKLTYAEAKA plus C-terminal extension VCEFEGGHLATYKQLEAARKIGFHVCAAGWMAK (SEQ ID NO: 9); TSG-6 mimetic (RSGKYKLTYAEAKAVCEFEGGHLATYKQLEAARKIGFHVCAAGWMAK; peptide 4)” the “expression of CD44ICD in whole lysate of liver tissue” value [1] was “reduced”, the “expression of CD44 in whole lysate of liver tissue” value [1] was “reduced” and the “expression of CD44ICD in nuclear protein of liver tissue” value (EtOH diet group, vs vehicle, Western blot (FIG. 8C)) was “significantly reduced”. For the same substance, the “expression of CD44 in liver tissue” value (immunohistochemical staining (FIG. 8A)) was “decreased”.
